Results as given in US6962713B2, “Spot-on formulations for combating parasites” (Merial, priority 1919, dated 2005).

Assay: Plasma kinetics of ivermectin after spot-on application at different doses in combination with fipronil to dogs
Type: in vivo, dog
Method: This study was undertaken in order to assess the linearity of the percutaneous passage of ivermectin after spot-on application of different doses of ivermectin (100, 250, 500 and 1000 μg.kg^−1) in combination with fipronil (10 mg.kg^−1) to the dog. Furthermore, the possibility of control both heartworms and gastro-intestinal nematodes was evaluated.
Twelve male Beagle dogs (allocated into 4 groups of 3 animals were applied spot-on formulations combining ivermectin (0.1%, 0.25%, 0.5% and 1%) and fipronil (10%) at a dose rate of 0.1 ml.kg^−1 (i.e. 100, 250, 500 and 1000 μg.kg^−1 of ivermectin and 10 mg.kg^−1 of fipronil).
The formulations are as follows: […]
The formulations were applied at one spot onto the skin between the shoulder blades.
Blood samples were collected at intervals up to 56 days post treatment.
The determination of ivermectin was carried out by HPLC after an automated solid/liquid extraction, using fluorescence detection, with limit of quantification of 100 pg.ml^−1. The determination of fipronil and its sulfone metabolite (RM1602) was carried out by HPLC with UV detection, with a limit of quantification of 20 ng.ml^−1 for fipronil and RM1602. Both methods were validated in terms of specificity, extraction recovery, linearity, precision and accuracy.

SMILES	plasma concentrations compared with those usually observed in dogs treated at the same dose in previous studies (spot-on, fipronil 10 mg.kg^−1, dogs)	plasma concentrations compared with those usually observed in dogs treated at the same dose in previous studies (dog, in vivo)
N#Cc1nn(-c2c(Cl)cc(C(F)(F)F)cc2Cl)c(N)c1S(=O)(=O)C(F)(F)F [RM1602]	significantly inferior	–
N#Cc1nn(-c2c(Cl)cc(C(F)(F)F)cc2Cl)c(N)c1[S+]([O-])C(F)(F)F (centres unmarked) [fipronil, 1-[2,6-Cl2-4-CF3 phenyl]-3-CN-4-[SO—CF3]-5-NH2 pyrazole]	–	significantly inferior
